Measurements from ChEMBL document CHEMBL3108690, “Discovery and characterization of a novel dihydroisoxazole class of α-amino-3-hydroxy-5-methyl-4-isoxazolepropionic acid (AMPA) receptor potentiators” (J Med Chem, 2013).
Activity calls are given as the source filed them. The rule behind the calls is not given here.

Experiments:
[1] = Apparent permeability from apical to basolateral side in MDCK cells at 2 uM by LC-MS/MS analysis; assay type: ADME, cell-based, Canis lupus familiaris; conditions: dog
[2] = test system: human MDR1; experiment: Efflux ratio of apparent permeability from basolateral to apical side over apical to basolateral side in MDCK cells transfected with human MDR1 at 2 uM; assay type: ADME, cell-based, Canis lupus familiaris; conditions: dog
[3] = species: Mus musculus; experiment: Positive allosteric modulation of AMPAR in mouse embryonic stem cell-derived neurons assessed as intracellular Ca2+ flux by FLIPR assay in presence of cyclothiazide relative to AMPA; assay type: cell-based
[4] = Positive allosteric modulation of AMPAR in mouse embryonic stem cell-derived neurons assessed as intracellular Ca2+ flux by FLIPR assay; assay type: cell-based
[5] = test system: Rattus norvegicus; experiment: Toxicity in Sprague-Dawley rat assessed as induction of convulsion at 0.32 to 0.56 mg/kg, sc measured after 13 to 23 mins; assay type: organism-based; set-up: route subcutaneous; conditions: in vivo
[6] = Displacement of [3H]PF-04725379 from Sprague-Dawley rat AMPAR after 2 hrs by liquid scintillation counting analysis
[7] = Fraction unbound in Sprague-Dawley rat brain at 0.01 mg/kg, iv; assay type: ADME, organism-based; set-up: dose 0.01 mg/kg, route intravenous
[8] = test system: Rattus norvegicus; experiment: Reversal of MK-801-mediated decrease in paired-pulse facilitation in Sprague-Dawley rat at 0.001 mg/kg, iv administered as bolus dose measured after 5 mins; assay type: functional, organism-based; set-up: dose 0.001 mg/kg
[9] = test system: Mus musculus; experiment: Ratio of unbound concentration in brain required to cause convulsion in CD-1 mouse at 0.32 to 0.56 mg/kg, sc to unbound concentration in brain required to cause induction of cGMP level in CD-1 mouse cerebellum at 0.32 mg/kg, sc
[10] = Therapeutic index, ratio of unbound concentration in brain required to cause convulsion in Sprague-Dawley rat at 0.32 to 0.56 mg/kg, sc to unbound concentration in brain required to cause reversal of MK-801-mediated increase in low delta component of local field potential in Sprague-Dawley rat at 0.003 mg/kg, iv administered as bolus dose; assay type: organism-based; conditions: read-out: TI
[11] = Ratio of total drug level from brain to plasma in Sprague-Dawley rat at 0.2 mg/kg, sc qd; assay type: ADME, organism-based; set-up: dose 0.2 mg/kg, route subcutaneous; conditions: read-out: BPR
[12] = test system: Mus musculus; experiment: Induction of cGMP level in sc dosed CD-1 mouse cerebellum administered as qd measured after 0.5 hrs by EIA; assay type: functional, organism-based
[13] = test system: Rattus norvegicus; experiment: Reversal of MK-801-mediated decrease in paired-pulse facilitation in Sprague-Dawley rat at 0.003 mg/kg, iv administered as bolus dose measured after 5 mins; assay type: functional, organism-based; set-up: dose 0.003 mg/kg
[14] = Terminal half life in Sprague-Dawley rat plasma at 0.2 mg/kg, sc qd; assay type: ADME, organism-based; set-up: dose 0.2 mg/kg, route subcutaneous; conditions: read-out: beta t1/2 (converted)
[15] = test system: Rattus norvegicus; experiment: Reversal of MK-801-mediated increase in low delta component of local field potential in Sprague-Dawley rat at 0.001 mg/kg, iv administered as bolus dose measured after 5 mins; assay type: functional, organism-based; set-up: dose 0.001 mg/kg
[16] = test system: Mus musculus; experiment: Toxicity in CD-1 mouse assessed as induction of convulsion at 0.32 to 0.56 mg/kg, sc measured after 5 to 11 mins; assay type: organism-based; set-up: route subcutaneous; conditions: in vivo
[17] = test system: Rattus norvegicus; experiment: Toxicity in Sprague-Dawley rat assessed as induction of tremor at 0.32 to 0.56 mg/kg, sc measured at 10 mins; assay type: organism-based; set-up: dose 0.32-0.56 mg/kg, route subcutaneous; conditions: in vivo
[18] = Terminal half life in Sprague-Dawley rat brain at 0.2 mg/kg, sc qd; assay type: ADME, organism-based; set-up: dose 0.2 mg/kg, route subcutaneous; conditions: read-out: beta t1/2 (converted)
[19] = Ratio of free drug level from brain to plasma in Sprague-Dawley rat at 0.2 mg/kg, sc qd; assay type: ADME, organism-based; set-up: dose 0.2 mg/kg, route subcutaneous; conditions: read-out: K(p,uu,brain)
[20] = test system: Rattus norvegicus; experiment: Reversal of MK-801-mediated increase in low delta component of local field potential in Sprague-Dawley rat at 0.003 mg/kg, iv administered as bolus dose measured after 5 mins; assay type: functional, organism-based; set-up: dose 0.003 mg/kg
[21] = Fraction unbound in Sprague-Dawley rat plasma at 0.01 mg/kg, iv; assay type: ADME, organism-based; set-up: dose 0.01 mg/kg, route intravenous
[22] = Ratio of unbound concentration in brain required to cause induction of cGMP level in CD-1 mouse cerebellum at 0.32 mg/kg, sc over unbound concentration in brain required to cause reversal of MK-801-mediated increase in low delta component of local field potential in Sprague-Dawley rat at 0.003 mg/kg, iv administered as bolus dose; assay type: functional
[23] = Ratio of drug level from brain to plasma in CD-1 mouse at 0.1 mg/kg, sc qd measured after 0.5 hrs; assay type: ADME, organism-based; set-up: dose 0.1 mg/kg, route subcutaneous; conditions: read-out: BPR
[24] = Apparent permeability in MDCK cells; assay type: ADME, cell-based, Canis lupus familiaris; conditions: dog
[25] = test system: MDR1; experiment: Efflux ratio of apparent permeability in MDCK cells expressing MDR1; assay type: ADME, cell-based, Canis lupus familiaris; conditions: dog
[26] = Apparent intrinsic clearance in human liver microsomes; assay type: ADME; conditions: read-out: CLH(app)

| Papp A→B at 2 µM [1] [×10⁻⁶ cm/s] | efflux ratio at 2 µM [2] | SMILES | Emax [3] [%] | EC50 [4] [nM] | also measured |
| --- | --- | --- | --- | --- | --- |
| 15.1 | 1.17 | CC(C)S(=O)(=O)NCC1CC(c2ccc(-c3cccc(C#N)c3)c(F)c2)=NO1 (racemic) | 156 | 1850 | – |
| 18.6 | 1.45 | CC(C)S(=O)(=O)NC[C@@H]1CC(c2ccc(N3CCCC3)c(F)c2)=NO1 | 147 | 123 | Activity [5]: Toxic; Ki [6]: < 24 nM; fraction unbound [7]: 0.014; Activity [8]: inactive; Ratio [9]: 5; selectivity ratio [10]: 500; Kp [11]: 1.04; Activity [12]: Dose-dependent effect; Activity [13]: Active; half-life [14]: 24 min; Activity [15]: inactive; Activity [16]: Toxic; Activity [17]: Toxic; half-life [18]: 24 min; Kp uu [19]: 0.54; Activity [20]: Active; fraction unbound [21]: 0.027; Ratio [22]: 100 |
| 29.1 | 1.18 | CC(C)S(=O)(=O)NC[C@@H]1CC(c2ccc(-c3ccccc3C#N)c(F)c2)=NO1 | – | < 10 | Ki [6]: 24 nM |
| – | 0.89 | CC(C)S(=O)(=O)NCC1CC(c2ccc(N3CCCC3)cc2)=NO1 (racemic) | 169 | 253 | – |
| – | 1.6 | CC(C)S(=O)(=O)NC[C@H]1CC(c2ccc(N3CCCC3)c(F)c2)=NO1 | 114 | 4690 | Ki [6]: 5760 nM |
| – | – | CC(C)S(=O)(=O)NCC1CC(c2ccc(-c3ccccc3)c(F)c2)=NO1 (racemic) | 138 | 3210 | – |
| 12.9 | 1.16 | CC(C)S(=O)(=O)NCC1CC(c2ccc(-c3ccccc3C#N)c(F)c2)=NO1 (racemic) | 152 | 86.9 | – |
| 3.93 | 12.1 | CC(=O)N[C@H]1CCN(c2ccc(C3=NO[C@H](CNS(=O)(=O)C(C)C)C3)cc2F)C1 | 143 | < 10 | Kp at 0.5 h [23]: 0.03 |
| – | – | CC(=O)NC[C@@H]1CC(c2ccc(N3CCCC3)c(F)c2)=NO1 | – | 4400 | Papp [24]: 35 ×10⁻⁶ cm/s; efflux ratio [25]: 0.98; microsomal CLint [26]: 26 µL/min/mg |
| – | – | CC(C)S(=O)(=O)NCC1CC(c2cccc(F)c2)=NO1 (racemic) | – | > 31600 | – |
| 16.7 | 1.4 | CC(C)S(=O)(=O)NCC1CC(c2ccc(-c3ccc(C#N)cc3)c(F)c2)=NO1 (racemic) | 124 | 2640 | – |
| – | – | CC(C)S(=O)(=O)NCC1CC(c2ccc(N3CCCC3)c(F)c2)=NO1 (racemic) | 128 | 155 | – |
| 22 | 0.84 | CC(C)S(=O)(=O)NCC1CC(c2ccc(-c3cccnc3)c(F)c2)=NO1 (racemic) | 157 | 294 | – |
